Values of other authors, collected in US20130281718A1, “HIGH-FLUIDITY NON-CAKING DIANHYDROHEXITOL PELLETS” (ROQUETTE FRERES, priority 2010, published 2013).

Details: addition of 0.005% by weight of butyl cellulose acetate; pressure of 0.23 bar after forming

Question: With `CC(C)(CO)CO` [neopentyl glycol] as the compound, how does the Time without caking read?
Answer: Its Time without caking is 30 days.
